Results taken from patent publication US20240309016A1, “MACROCYCLIC HETEROCYCLE COMPOUNDS AND USE THEREOF” (TAKEDA PHARMACEUTICAL COMPANY LIMITED, priority 2023, published 2024).
Where two headings read alike, the source gives them in different places.

Experiments:
human OX2 receptor = biological target: T1, human OX2 receptor (Homo sapiens, UniProt O43614); assay: Measurement of orexin type 2 receptor agonist activity (Experimental Example 2; Fluo-4 AM calcium fluorescence, FDSS μCELL); type: cell-based; conditions: compound at 3 μM; CHO cells expressing human OX2 receptor; DMSO = 0%, 10 nM orexin A (human) = 100%
T1 construct: expressed in transfected cells
T1 sequence (O43614 1-444): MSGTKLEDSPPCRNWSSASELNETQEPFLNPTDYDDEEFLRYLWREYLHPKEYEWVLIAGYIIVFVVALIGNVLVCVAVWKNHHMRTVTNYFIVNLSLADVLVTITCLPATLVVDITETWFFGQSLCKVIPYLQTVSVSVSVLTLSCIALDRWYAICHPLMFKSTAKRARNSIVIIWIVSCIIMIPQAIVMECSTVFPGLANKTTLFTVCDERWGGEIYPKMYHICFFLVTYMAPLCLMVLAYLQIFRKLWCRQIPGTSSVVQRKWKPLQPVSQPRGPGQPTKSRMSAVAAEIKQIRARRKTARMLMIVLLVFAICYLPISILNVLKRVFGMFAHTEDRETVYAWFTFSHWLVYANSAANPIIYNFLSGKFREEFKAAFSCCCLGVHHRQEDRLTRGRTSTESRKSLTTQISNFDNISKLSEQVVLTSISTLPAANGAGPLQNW
Summary of the method: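 Agonism was tested in CHO-K1 cells stably expressing human OX2 receptor (residues 1-444), loaded with Fluo-4 AM plus probenecid. Calcium fluorescence was recorded for 1 min 40 s after compound addition. Activity (%) was scaled between DMSO (0%) and 10 nM orexin A (100%) and reported at 3 μM compound.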

Row | Structure (SMILES) | OX2R agonist activity (3 μM, %) (human OX2 receptor) [%] | other results
1 | Cc1cc(F)c2nc1Oc1cccc(c1F)C[C@H]1[C@@H](NS(C)(=O)=O)C(F)(F)CN1C(=O)NC2 [Example 36, N-[(15aS,16R)-5,17,17,20-tetrafluoro-7-methyl-1-oxo-2,3,15a,16,17,18-hexahydro-1H,15H-4,8-(azeno)-14,10-(metheno)pyrrolo[1,2-j][1,8,10]oxadiazacyclo-heptadecin-16-yl]methanesulfonamide] | 104 | ring closure, yield of all isomers (from Cc1cc(F)c(CN)nc1Oc1cccc(C[C@@H]2NCC(F)(F)[C@@H]2NS(C)(=O)=O)c1F, other bond, di(N-succinimidyl) carbonate, THF, 2.95 mM, 60.0 °C, 1.5 h, 2 steps): 38.2%
2 | Cc1ccc2nc1Oc1cccc(c1F)C[C@H]1[C@@H](NS(C)(=O)=O)[C@@H](F)CN1C(=O)NC2 [Example 10, N-[(15aS,16R,17S)-17,20-difluoro-7-methyl-1-oxo-2,3,15a,16,17,18-hexahydro-1H,15H-4,8-(azeno)-14,10-(metheno)pyrrolo[1,2-j][1,8,10]oxadiazacyclo-heptadecin-16-yl]methanesulfonamide] | 96 | ring closure, yield of all isomers (from Cc1ccc(CN)nc1Oc1cccc(C[C@@H]2NC[C@H](F)[C@@H]2NS(C)(=O)=O)c1F, other bond, CDI, THF, 2.12 mM, 25.0 °C, 18.0 h): 16.7%
3 | Cc1ccc2nc1Oc1cccc(c1)C[C@H]1[C@@H](NS(C)(=O)=O)CCN1C(=O)CO2 [Example 33, N-[(15aS,16S)-7-methyl-1-oxo-1,2,15a,16,17,18-hexahydro-15H-4,8-(azeno)-10,14-(metheno)pyrrolo[1,2-d][1,12,4]dioxazacyclo-heptadecin-16-yl]methanesulfonamide] | 102 | ring closure, yield of all isomers (from Cc1ccc(OCC(=O)O)nc1Oc1cccc(C[C@@H]2NCC[C@@H]2NS(C)(=O)=O)c1, amide bond, PyBOP, THF, 0.92 mM, 25.0 °C, 12.0 h): 3.4%
4 | Cc1ccc2nc1OCc1cccc(c1)C[C@H]1[C@@H](NS(C)(=O)=O)CCN1C(=O)NC2 [Example 68, N-[(16aS,17S)-7-methyl-1-oxo-2,3,16a,17,18,19-hexahydro-1H,10H,16H-4,8-(azeno)-11,15-(metheno)pyrrolo[1,2-j][1,8,10]oxadiazacyclo-octadecin-17-yl]methanesulfonamide] | 100 | ring closure, yield of all isomers (from Cc1ccc(CNC(=O)OC(C)(C)C)nc1OCc1cccc(C[C@H]2[C@@H](N(COCC[Si](C)(C)C)S(C)(=O)=O)CCN2C(=O)OC(C)(C)C)c1, other bond, di(N-succinimidyl) carbonate / N-methylmorpholine, DIPEA, THF, 7.5 mM, 25.0 °C, 17.0 h, 2 steps): 3.7%
5 | CCS(=O)(=O)N[C@@H]1[C@@H]2Cc3cccc(c3F)Oc3nc(ccc3C)CNC(=O)N2CC1(F)F [Example 5, N-[(15aS,16R)-17,17,20-trifluoro-7-methyl-1-oxo-2,3,15a,16,17,18-hexahydro-1H,15H-4,8-(azeno)-10,14-(metheno)pyrrolo[1,2-j][1,8,10]oxadiazacyclo-heptadecin-16-yl]ethanesulfonamide] | 102 | ring closure, yield of all isomers (from CCS(=O)(=O)N[C@@H]1[C@H](Cc2cccc(Oc3nc(CN)ccc3C)c2F)NCC1(F)F, other bond, di(N-succinimidyl) carbonate/4-methylmorpholine/DIPEA, THF, 1.81 mM, 25.0 °C, 12.0 h): 21%
6 | Cc1ccc2nc1Oc1cccc(c1F)C[C@H]1[C@@H](NC(=O)OCc3ccccc3)C(F)(F)CN1C(=O)NC2 | – | ring closure, yield of all isomers (from Cc1ccc(CN)nc1Oc1cccc(C[C@@H]2NCC(F)(F)[C@@H]2NC(=O)OCc2ccccc2)c1F, other bond, di(N-succinimidyl) carbonate, THF, 2.0 mM, 70.0 °C, 5.2 h): 78.8%
7 | Cc1ccc2nc1Oc1cccc(c1)C[C@H]1[C@@H](NS(C)(=O)=O)CCN1C(=O)NC2 [Example 1, N-[(15aS,16S)-7-methyl-1-oxo-2,3,15a,16,17,18-hexahydro-1H,15H-4,8-(azeno)-10,14-(metheno)pyrrolo[1,2-j][1,8,10]oxadiazacyclo-heptadecin-16-yl]methanesulfonamide] | 107 | ring closure, yield of all isomers (from Cc1ccc(CN)nc1Oc1cccc(C[C@@H]2NCC[C@@H]2NS(C)(=O)=O)c1, other bond, CDI/DIPEA, DMF, 2.15 mM, 25.0 °C, 12.0 h): 29.9%
8 | CCS(=O)(=O)N[C@H]1[C@@H](F)CN2C(=O)NCc3ccc(C)c(n3)Cc3cccc(c3F)C[C@@H]12 [Example 56, N-[(15aS,16R,17S)-17,20-difluoro-7-methyl-1-oxo-2,3,15a,16,17,18-hexahydro-1H,9H,15H-8,4-(azeno)-10,14-(metheno)pyrrolo[1,2-c][1,3]diazacycloheptadecin-16-yl]ethanesulfonamide] | 100 | ring closure, yield of all isomers (from CCS(=O)(=O)N[C@@H]1[C@H](Cc2cccc(Cc3nc(CN)ccc3C)c2F)NC[C@@H]1F, other bond, di(N-succinimidyl) carbonate / 4-methylmorpholine, DIPEA, THF, 4.1 mM, 25.0 °C, 17.0 h): 3.9%
9 | Cc1ccc2nc1Oc1cccc(c1)C[C@H]1[C@@H](NS(C)(=O)=O)CCN1C(=O)CC2 [Example 7, N-[(1S,19aS)-11-methyl-5-oxo-2,3,6,7,19,19a-hexahydro-1H, 5H-8,12-(azeno)-14,18-(metheno)pyrrolo[2,1-h][1,9]oxazacycloheptadecin-1-yl]methanesulfonamide] | 103 | ring closure, yield of all isomers (from Cc1ccc(CCC(=O)O)nc1Oc1cccc(C[C@@H]2NCC[C@@H]2NS(C)(=O)=O)c1, amide bond, PyBOP/TEA, THF, 0.231 mM, 25.0 °C, 4.0 h): 20%
10 | CS(=O)(=O)N[C@H]1[C@@H](F)CN2C(=O)NCc3cc(c(Cl)cn3)Oc3cccc(c3F)C[C@@H]12 [Example 44, N-[(15aS,16R,17S)-7-chloro-17,20-difluoro-1-oxo-2,3,15a,16,17,18-hexahydro-1H,15H-4,8:14,10-di(metheno)pyrrolo[1,2-j][1,5,8,10]oxatriazacyclo-heptadecin-16-yl]methanesulfonamide] | 84 | –
11 | CCS(=O)(=O)N[C@H]1[C@@H](F)CN2C(=O)NCc3ccc(C)c(n3)Oc3cccc(c3F)C[C@@H]12 [Example 25, N-[(15aS,16R,17S)-17,20-difluoro-7-methyl-1-oxo-2,3,15a,16,17,18-hexahydro-1H,15H-4,8-(azeno)-14,10-(metheno)pyrrolo[1,2-j][1,8,10]oxadiazacyclo-heptadecin-16-yl]ethanesulfonamide] | 105 | –
12 | CCS(=O)(=O)N[C@H]1[C@@H](F)CN2C(=O)NCc3ccc(F)c(n3)Oc3cccc(c3F)C[C@@H]12 [Example 31, N-[(15aS,16R,17S)-7,17,20-trifluoro-1-oxo-2,3,15a,16,17,18-hexahydro-1H,15H-4,8-(azeno)-14,10-(metheno)pyrrolo[1,2-j][1,8,10]oxadiazacyclo-heptadecin-16-yl]ethanesulfonamide] | 102 | –
13 | Cc1ccc2nc1Oc1cccc(c1F)C[C@H]1[C@@H](NS(=O)(=O)C(F)F)C(F)(F)CN1C(=O)NC2 [Example 43, 1,1-difluoro-N-[(15aS,16R)-17,17,20-trifluoro-7-methyl-1-oxo-2,3,15a,16,17,18-hexahydro-1H,15H-4,8-(azeno)-10,14-(metheno)pyrrolo[1,2-j][1,8,10]oxadiazacyclo-heptadecin-16-yl]methanesulfonamide] | 101 | –
14 | CCS(=O)(=O)N[C@H]1[C@@H](F)CN2C(=O)NCc3ccc(Cl)c(n3)Oc3cccc(c3F)C[C@@H]12 [Example 24, N-[(15aS,16R,17S)-7-chloro-17,20-difluoro-1-oxo-2,3,15a,16,17,18-hexahydro-1H,15H-4,8-(azeno)-14,10-(metheno)pyrrolo[1,2-j][1,8,10]oxadiazacyclo-heptadecin-16-yl]ethanesulfonamide] | 104 | –
15 | CCc1ccc2nc1Oc1cccc(c1F)C[C@H]1[C@@H](NS(C)(=O)=O)C(F)(F)CN1C(=O)NC2 [Example 79, N-[(15aS,16R)-7-ethyl-17,17,20-trifluoro-1-oxo-2,3,15a,16,17,18-hexahydro-1H,15H-4,8-(azeno)-14,10-(metheno)pyrrolo[1,2-j][1,8,10]oxadiazacyclo-heptadecin-16-yl]methanesulfonamide] | 102 | –
16 | CCS(=O)(=O)N[C@H]1[C@@H](F)CN2C(=O)COc3ccc(Cl)c(n3)Oc3cccc(c3)C[C@@H]12 [Example 69, N-[(15aS,16R,17S)-7-chloro-17-fluoro-1-oxo-1,2,15a,16,17,18-hexahydro-15H-4,8-(azeno)-14,10-(metheno)pyrrolo[1,2-d][1,12,4]dioxazacyclo-heptadecin-16-yl]ethanesulfonamide] | 101 | –
17 | CCS(=O)(=O)N[C@H]1[C@@H](F)CN2C(=O)COc3ccc(C(F)F)c(n3)Oc3cccc(c3)C[C@@H]12 [Example 87, N-[(15aS,16R,17S)-7-(difluoromethyl)-17-fluoro-1-oxo-1,2,15a,16,17,18-hexahydro-15H-4,8-(azeno)-14,10-(metheno)pyrrolo[1,2-d][1,12,4]dioxazacyclo-heptadecin-16-yl]ethanesulfonamide] | 105 | –
18 | Cc1ccc2nc1OCc1cccc(c1F)C[C@H]1[C@@H](NS(C)(=O)=O)C(F)(F)CN1C(=O)NC2 [Example 84, N-[(16aS,17R)-18,18,21-trifluoro-7-methyl-1-oxo-2,3,16a,17,18,19-hexahydro-1H,10H,16H-4,8-(azeno)-15,11-(metheno)pyrrolo[1,2-j][1,8,10]oxadiazacyclo-octadecin-17-yl]methanesulfonamide] | 104 | –
